The results in this text go back to a melting point compilation (Tetko et al.; mined from patent text by program, amines drawn as free bases though some values may be those of a salt).

Some results are limits rather than exact numbers.

The term melting point denotes the temperature, or range, at which the solid turns liquid.

With `COc1cccc([C@H]2O[C@H](CC(=O)NCCCCCC(=O)O)C(=O)N(CC(C)(C)CO)c3ccc(Cl)cc32)c1OC`, the melting point lay in the range of 96 to 98 °C.

For the molecule `CCN(CC)C(=O)NC1CC2c3cccc4[nH]c(CCc5ccc(OC)cc5)c(c34)CC2N(C)C1` (centres undefined), the melting point fell in the range of 147 to 149 °C.

Regarding `Cn1cccc1CN1CCCC1=O`, the melting point is 44.5 to 47.5 °C.

As for `C[Si]1(CC(CN)CC(=O)O)CCCCC1` (centres undefined), the melting point lay within 140 to 143 °C.

As to `N=C(N)Nc1ccc(S(=O)(=O)N2CCOCC2)cc1`, the melting point lay in the range of 102 to 105 °C.

The molecule `COc1ccc2c(Cc3c(Cl)cncc3Cl)nnc(N(C)C)c2c1` had a melting point of 170 to 173 °C.

With `CC(C)(c1ccc(Oc2ccc(N3C(=O)C=CC3=O)cc2)cc1)c1ccc(C(C)(C)c2ccc(Oc3ccc(N4C(=O)C=CC4=O)cc3)cc2)cc1`, the melting point lay in the range of 214 to 216 °C.

`CC(C)(C)OC(=O)c1nc(-c2ccccc2)[nH]c1-c1ccncc1` registered a melting point of 205 to 206 °C.

With `Cc1oc(-c2ccc(C(F)(F)F)cc2)nc1CC#N`, the melting point was 85 to 86 °C.

Regarding `Nc1ncccc1Sc1ccccc1`, the melting point lay within 108 to 109 °C.

`Cc1nc(NC(CO)C(C)C)c2c(n1)c(C)nn2C` (centres undefined) registered a melting point of 166 to 168 °C.

`O=C(Nc1ccc2ccc(-c3ccccc3Cl)nc2n1)c1ccccc1` yielded a melting point of 156 °C.

`C[C@@H]1O[C@@]1(Cn1cncn1)c1cc(F)ccc1F` showed a melting point of 69 °C.

`Cc1ccc(-c2ccc(C(=O)Nc3cc4ncc(CN5CCCC5)cc4cc3F)c(F)c2)cc1`: the melting point was 179 to 181 °C.

Consider `CN(C)C=C1CN=C(c2ccccc2Cl)c2ccccc2C1=O`, for which the melting point fell in the range of 155 to 157 °C.

For `CC(C)Nc1cccnc1N1CCN(C(=O)c2ccc(C(=O)N3CCNCC3)cc2)CC1`, the melting point was in the range of 175 to 176 °C.

On to `Cc1ccc(-n2c(-c3sc(NC(=O)c4ccccc4)nc3-c3ccccc3)nc3ccccc3c2=O)cc1`, for which the melting point was above 275 °C.

On to `Cc1nc(-c2ccc(-c3ccc(C(=O)Nc4cc(OCCN(C)C)ccc4Cl)cc3)c(C)c2)no1`, for which the melting point was 101 to 102 °C.

For the molecule `CCOC(=O)c1csc(NC(c2ccccc2)(c2ccccc2)c2ccccc2)n1`, the melting point lay within 140 to 141 °C.

On to `c1ccc(OCCSCc2nnc(-c3ccc(OCCN4CCCC4)cc3)o2)cc1`, for which the melting point was found to be 65 °C.

With `CCC(CC)C(NS(=O)(=O)c1ccc(Cl)s1)c1ccnn1Cc1ccc(O)cc1` (centres undefined), the melting point was 90 to 92 °C.

Turning to `COc1cc(OC)c(-c2ccc(C)s2)cc1C=CC(=O)c1ccc(C(=O)O)cc1`, the melting point was 213 to 215 °C.

In turn, `CCCCc1nc2c(N)nc3ccccc3c2n1CCNC(=O)CCCCC1SCC2NC(=N)NC21` (centres undefined) came in with a melting point of 95 to 96 °C.

As to `O=C(O)c1cc(OCc2ccccc2)ccc1OC1CCOC1=O` (centres undefined), the melting point was 120 to 122 °C.

Molecule `CCCc1c(SC(=O)N(C)C)ccc(C(C)=O)c1OCCCC(=O)OCC` gave a melting point of 60 to 63 °C.

For the molecule `CC(C)n1nc(-c2sc(C(N)=O)nc2-c2cccc(F)c2)ccc1=O`, the melting point was 248 to 250 °C.

Regarding `NS(=O)(=O)c1ccc(N2CN(c3ccccc3)CC2=O)c(Br)c1`, the melting point fell in the range of 193 to 200 °C.

The molecule `COc1ccc2cc([C@H](C)C(=O)NOCC(=O)OC(C)(C)C)ccc2c1` yielded a melting point of 82 to 84 °C.

In turn, `COc1ccc2c(c1OC)CN(c1nc(N)c3cc(OC)c(OC)c(OC)c3n1)CC2` came in with a melting point of 190 °C.

`COc1c(C)cc2ccccc2c1C(CC(=O)O)C(=O)O` (centres undefined): the melting point was found to be 159 °C.

In turn, `NC(=O)c1c(Cl)c(-c2cncs2)n2c1CCCC2` displayed a melting point of 227 °C.

`CN(C)N=Nc1c[nH]c(=O)[nH]c1=O` had a melting point of 166 to 167 °C.

On to `O=C(NC(CO)CO)c1cccc(-c2ccc3c(c2)C(c2ccc(Cl)cc2Cl)CC3)c1` (centres undefined), for which the melting point lay within 135 to 157 °C.

Turning to `CCOc1cc(CCl)cc(OCc2nc(-c3ccccc3)oc2C)c1`, the melting point lay in the range of 86 to 87 °C.
